Source: patent US20210267981A1, “COMPOUNDS FOR THE TREATMENT OF HIV INFECTION AND OTHER DISEASES CAUSED BY RNA VIRUSES” (UNIVERSIDAD CATOLICA DE VALENCIA "SAN VICENTE MARTIR", priority 2018, published 2021)
Like-named read-outs stand apart in the source and are kept apart here.

Tests used:
[1] = system: HIV-1 RNA transcripts (RRE-Rev system in a cellular context); assay: HIV-1 RNA processing analysis by RT-qPCR in MT-2 cells transfected with pNL4.3; assay type: cell-based; conditions: 5 and 10 μM
Method: HIV-1 RNA Processing Analysis.
MT-2 cells, previously treated for 72 or 96 hours with two different concentrations (5 and 10 μM) of compound 1a or 2a, were transfected with a pNL4.3 plasmid. Total cellular RNA was then isolated, treated with DNase I, and reverse transcribed as described in the state of the art (Prado et al., Biochem Pharmacol 107 (2016) 14-28). The unprocessed, semi-processed, and completely processed HIV-1 RNA transcripts were quantified by means of qPCR in relation to an untreated control obtained, using primers described by Mohammadi et al. (PLoS Pathog 9(1) (2013) e1003161), and GAPDH as endogenous control.
Whether or not compounds 1a and 2a acted in the RRE-Rev system in a cellular context was then verified. After transfecting the cells with a full-length proviral vector, the amounts of unprocessed, semi-processed, and completely processed HIV-1 RNA transcripts were quantified by means of RT-qPCR in the absence and presence of each compound (Prado et al., Biochem Pharmacol 107 (2016) 14-28). Given that Rev indirectly puts the splicing process at a disadvantage by transporting unprocessed or semi-processed viral transcripts from the nucleus to the cytoplasm, the blocking of the RRE-Rev system should increase the levels of completely processed species and reduce the amount of unprocessed or semi-processed HIV-1 transcripts.

complete RRE-Rev complex = assay: Electrophoretic mobility shift assay (EMSA) of complete RRE-Rev complex formation; assay type: binding, HIV-1; conditions: for IC50: 78 nM RRE and 1.32 μM Rev, two independent experiments
Method: Electrophoretic Mobility Shift Assays (EMSA).
These experiments used 78 nM of complete RRE, 1.32 μM of complete Rev, and increasing concentrations of each compound, and were carried out and analyzed as described previously in the state of the art (Prado et al., Biochem Pharmacol 107 (2016) 14-28; Fang et al., Cell 155(3) (2013) 594-605). The IC50 values were determined by measuring the area and the intensity of the band corresponding to free RRE. These experiments were performed at least three times for each compound.
(§1) The capacity of the compounds to inhibit IIB-Rev34-50 interaction was evaluated by means of an assay based on the detection, by means of fluorescence anisotropy (FA), of the shift of an FITC-labeled Rev34-50 peptide from its binding site in subdomain IIB of RRE. The capacity of the compounds to inhibit the formation of the RRE-Rev complex was evaluated by means of an electrophoretic mobility shift assay (EMSA).

[2] = system: subdomain IIB of the RRE (IIBh-19ap RNA); assay: Fluorescence intensity binding to IIBh RNA, with or without competing RNAtCys or LTRd DNA; parameters: species or system HIV-1; conditions: for specificity of the interaction with IIB: 100-fold molar excess of RNAtCys or LTRd; for specificity IIB/DNA: Kd(IIBh)/Kd(IIBh + LTRd) quotient; for specificity IIB/RNA: Kd(IIBh)/Kd(IIBh + tRNA) quotient
Method: Depending on the absorption spectra of the compounds, these experiments measured association with IIBh-19ap or IIBh-23fl RNA sequences labeled with 2-aminopurine and fluorescein in residues A19 and U23 of the IIB loop, respectively (Prado et al., Biochem Pharmacol 107 (2016) 14-28), and were carried out in a SPECTRA GEMINI XPS plate reader (Molecular Devices, Sunnyvale, USA) or a Victor X5 plate reader (Perkin Elmer). The IIB RNA concentration in these assays was 100 nM, and the specificity of the interactions with respect to RNA and DNA was evaluated by duplicating the experiments in the presence of a 100-fold molar excess (10 μM) of RNAtCys or LTRd DNA duplex. All the fluorescence intensity experiments were performed at least three times for each compound.
The specificity of the interaction was evaluated by duplicating the experiments in the presence of a 100-fold molar excess of RNAtCys. Likewise, specificity with respect to a double-stranded DNA was evaluated by further performing the experiments with a 100-fold molar excess of a DNA duplex with 26 base pairs (identified as LTRd) containing NF-κB and Sp-1 transcription factor-binding sites (Prado et al., Biochem Pharmacol 107 (2016) 14-28). These two factors bind to the LTR promoter of HIV-1 DNA and are essential for virus replication (Jones et al., AnnuRevBiochem 63 (1994) 717-43).

HIV-1 = assay: Anti-HIV-1 activity, cell infection assay in MT-2 cells (pNL4.3-Ren supernatants); assay type: cell-based
Method: Plasmids, Virus, and Cells for Ex Vivo Assays.
Vectors pNL4.3-Luc and pNL4.3-Ren were generated by cloning luciferase and Renilla genes, respectively, in the nef site of HIV-1 proviral plasmid pNL4.3 (Adachi et al., J Virol 59(2) (1986) 284-91), as described previously in the state of the art (Garcia-Perez et al., J Med Virol 79(2) (2007) 127-37). MT-2 cells (Harada et al., Science 229(4713) (1985) 563-6) and 293T cells (American Type Culture Collection, Rockville, USA) were cultured as described previously (Prado et al., Biochem Pharmacol 107 (2016) 14-28).
(§2) Anti-HIV-1 Activity and Cell Toxicity.
(§3) The methodology used for performing and analyzing these experiments has been described previously (Prado et al., Biochem Pharmacol 107 (2016) 14-28; Gonzalez-Bulnes et al., Angewandte Chemie-International Edition 52(50) (2013) 13405-13409). Briefly, infectious supernatants were obtained from 293T cells transfected with the pNL4.3-Ren plasmid. MT-2 cells were infected with these supernatants in the presence of the compounds, and the anti-HIV activity was quantified 48 h after infection by determining luciferase activity in the cell lysates. Cell viability was evaluated in cells treated with the same compound concentrations using the CellTiter-Glo assay (Promega). The antiviral activity and cell toxicity results represent the average of at least three independent experiments.

IIBh RNA = assay: NMR spectroscopy of compound binding to IIBh RNA; parameters: species or system HIV-1; conditions: increasing ligand:RNA molar ratios
Method: The NMR spectra were acquired in a 500 MHz Bruker Avance spectrometer and analyzed with Topspin 3.5 (Bruker Biospin, Billerica, USA). The interaction between the tested compounds and IIBh RNA samples dissolved at a concentration of 40-60 μM were monitored as described previously in the state of the art (Prado et al., Biochem Pharmacol 107 (2016) 14-28; Gonzalez-Bulnes et al., Angewandte Chemie-International Edition 52(50) (2013) 13405-13409), using one-dimensional and two-dimensional experiments (TOCSY) at increasing ligand:RNA molar ratios.
NMR spectroscopy is then used for identifying the binding sites in the IIBh fork of the compounds. […] This compound altered the signals of residues C9, A19, C20, and U23 comprising the Rev binding site, but also disrupted the signals of the double-helix stems flanking the loop. 2a and 2b required a higher drug:RNA molar ratio to induce changes in the signals of IIBh RNA.

[3] = system: HIV-1 LTR promoter (LTR-Luc); assay: Cell transfection assay, LTR-Luc plasmid in MT-2 cells; assay type: cell-based; conditions: for EC50: read-out: EC50 of transfection, LTR; for inhibition of LTR-dependent expression: compared with HIV-1 infection and transfection assays
Method: (§4) Cell Transfection Assays.
(§5) MT-2 cells were transfected with plasmids containing a luciferase reporter gene the expression of which was under the control of the complete HIV-1 (NL4.3-luc) or HIV-1 LTR promoter (LTR-Luc). After transfection, the cells were treated with different compound concentrations, and the luciferase activity in the cell lysates was quantified 48 h later (Prado et al., Biochem Pharmacol 107 (2016) 14-28; Gonzalez-Bulnes et al., Angewandte Chemie-International Edition 52(50) (2013) 13405-13409).
The antiviral mechanism of compounds 1a and 2a was examined with additional cellular assays.

[4] = system: complete HIV-1 (NL4.3-luc); assay: Cell transfection assay, full-length HIV-1 luciferase plasmid (NL4.3-luc) in MT-2 cells; assay type: cell-based
Method: as §4, §5
In order to identify the target or the set of targets of the tested compounds, an assay based on the transfection of a full-length HIV-1 vector is performed. In this experiment, the entry, reverse transcription, and DNA integration phases of the viral cycle are sidestepped, such that only transcriptional or post-transcriptional events which can be blocked by the inhibitor under study are produced.

[5] = Cell toxicity, CellTiter-Glo assay; assay type: cell-based; conditions: human
Excerpt: as §2, §3

MT-2 cells = assay: Cell toxicity, CellTiter-Glo assay; assay type: cell-based; conditions: CC50 versus antiviral concentration of the infection experiments
Excerpt: as §2, §3

[6] = system: IIB-Rev34-50 interaction (subdomain IIB of RRE and FITC-labeled Rev34-50 peptide); assay: Fluorescence anisotropy (FA) inhibition of IIBh-Rev34-50 interaction; assay type: binding, HIV-1
Method: Fluorescence Anisotropy (FA).
These experiments were performed and analyzed as described in the state of the art (Prado et al., Biochem Pharmacol 107 (2016) 14-28; Gonzalez-Bulnes et al., Angewandte Chemie-International Edition 52(50) (2013) 13405-13409; Luedtke et al., Biopolymers 70(1) (2003) 103-19), using 96-well plates and Victor X3 or Victor X5 plate readers (Perkin Elmer, Waltham USA). The assays used 10 nM of frevp and 60 nM of IIBh, and included one positive control (a mixture of IIBh and frevp) and two negative controls (frevp and a mixture of IIBh, frevp, and neomycin B). IIBh-frevp inhibition was only considered to exist when anisotropy reached the expected minimum value at the highest inhibitor concentrations. To ensure that there would not be spectral superposition with FITC, anisotropy data was also collected for each of the compounds. None of them emitted fluorescence under the assay conditions. These experiments were repeated three times for each compound.
as §1

[7] = IIBh-19ap, 100-fold molar excess of LTRd DNA duplex, read-out: Kd(IIBh + LTRd)
[8] = IIBh-19ap, 100-fold molar excess of RNAtCys, read-out: Kd(IIBh + tRNA)
[9] = Human immunodeficiency virus 1, MT2, 48 h, read-out: EC50 of infection, HIV
[10] = Human immunodeficiency virus 1, MT2, read-out: EC50 cell infection assay
[11] = Human immunodeficiency virus 1, MT2, 48 h, read-out: EC50 of transfection, HIV
[12] = Human immunodeficiency virus 1, MT2, read-out: EC50 transfection assay of full-length HIV-1 vector
[13] = MT-2 cells, CellTiter-Glo, read-out: CC50
[14] = range given for FA and EMSA together for 2a and 2b, read-out: IC50 (FA, IIB-Rev34-50 interaction)
[15] = IIBh-19ap, no competitor, read-out: Kd(IIBh)
[16] = 60 nM IIBh and 10 nM frevp, three independent experiments, read-out: IC50 IIB-Rev34-50

| Compound | effect on pattern of unprocessed, semi-processed and completely processed HIV-1 RNA transcripts [1] | levels of viral transcripts in relation to untreated cells [1] | specificity of the interaction with IIB [2] | Kd [2, 7] [µM] | Kd [2, 8] [µM] | specificity IIB/DNA [2] | specificity IIB/RNA [2] | EC50 (HIV-1; [9]) [µM] | EC50 (HIV-1; [10]) [µM] | changes of IIBh RNA NMR signals (IIBh RNA) | inhibition of LTR-dependent expression [3] | EC50 [4, 11] [µM] | EC50 [4, 12] [µM] | CC50 [5, 13] [µM] | CC50 values fold greater than the antiviral concentrations (MT-2 cells) [fold] | IC50 [6, 14] [µM] | IC50 (complete RRE-Rev complex) [µM] | Kd [2, 15] [µM] | IC50 [6, 16] [µM] | also measured |
| --- | --- | --- | --- | --- | --- | --- | --- | --- | --- | --- | --- | --- | --- | --- | --- | --- | --- | --- | --- | --- |
| CN(C)CCOc1cc2c(c3ccccc13)-c1ccccc1C2=O [Compound 1a] | This effect was clearly observed | significant reduction in the levels of viral transcripts | moderate specificity | 2.8 | 2.4 | 0.50 | 0.58 | 0.83 | 0.83 | widened or altered the chemical shift of IIBh resonances at low drug:RNA molar ratios | weaker inhibition of LTR-dependent expression in relation to the activity detected in the complete HIV-1 transfection assay | 2.5 | 2.5 to 3.3 | 28.1 | 34 | 6.7 | – | – | – | concentrations at which formation of RRE-Rev complexes with an unusual molecular weight was promoted (complete RRE-Rev complex): greater than 10 μM; Kd ([2]; fluorescence intensity, read-out: Kd for subdomain IIB of the RRE): 1.4 µM; EC50 ([3]; Human immunodeficiency virus 1, MT2, 48 h): 12.5 to 25 µM |
| Fc1nc(N2CCNCC2)c(F)c(Sc2ccc(Cl)cc2)c1F [Compound 2a] | did not induce clear changes in the patterns of unprocessed viral transcripts with respect to processed viral transcripts | reduced the amount of viral transcripts to a lesser extent with respect to 1a | specific | 9.2 | 9 | 1.17 | 1.20 | 2 | 2 | affected the signals of residues located in the stems flanking the internal loop | inhibited LTR-dependent expression with an EC50 value similar to those measured in the HIV-1 infection and transfection experiments | 3.3 | 2.5 to 3.3 | – | 22 | – | 4.7 | 10.8 | 4.8 | EC50 ([3]; Human immunodeficiency virus 1, MT2, MT-2 cells, LTR-Luc, 48 h): 4.4 µM; CC50 [5]: 43.9 µM |
| N=c1c(S(=O)(=O)c2ccc(Cl)cc2)cc2c(=O)n3ccccc3nc2n1C1CCCCC1 [Compound 2b] | – | – | specific | 10.2 | 11.4 | 1.19 | 1.06 | 10.2 | 10.2 | only induced the widening of signals of residue U23 of the loop at a high drug:RNA molar ratio | – | > 100 | – | > 100 | > 10 | 10.3 to 13.7 | 13.7 | 12.1 | 10.3 | activity in the transfection assay ([4]; at concentrations lower than 100 μM): inactive |
